Laboratory results as given in the supplement of paper PMC10307832.

Columns and labels:
Experiment in all cases: relative viability (nuclei count vs DMSO), 5 days (fraction); higher = more cells survive
BAM7 + Crizotinib = compound: CCOC1=CC=CC=C1N=NC2=C(NN(C2=O)C3=NC(=CS3)C4=CC=CC=C4)C [BAM7] + C[C@@H](Oc1cc(-c2cnn(C3CCNCC3)c2)cnc1N)c1c(Cl)ccc(F)c1Cl [Crizotinib] (partner 1 µM)
In short: (§1)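 Dosing by pin tool came one day after lung cancer cell lines were seeded in 1536-well plates, using either one drug or a fixed anchor-drug dose plus five library-drug doses (not always all listed) in √10 steps. After 5 days, nuclei were counted on 4× images. Relative viability is treated-well nuclei count divided by vehicle-well nuclei count, and values are medians of duplicate plates.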

BAM7 + Linsitinib = compound: CCOC1=CC=CC=C1N=NC2=C(NN(C2=O)C3=NC(=CS3)C4=CC=CC=C4)C [BAM7] + C[C@]1(O)C[C@@H](c2nc(-c3ccc4ccc(-c5ccccc5)nc4c3)c3c(N)nccn32)C1 [Linsitinib] (partner 1 µM)
In short: as §1

[1] = compound: CCn1c(-c2nonc2N)nc2c(C#CC(C)(C)O)ncc(OC[C@H]3CCCNC3)c21 + CC(=O)c1c(C)c2cnc(Nc3ccc(N4CCNCC4)cn3)nc2n(C2CCCC2)c1=O [Palbociclib] (partner 0.5 µM)
In short: as §1

[2] = compound: CCn1c(-c2nonc2N)nc2c(C#CC(C)(C)O)ncc(OC[C@H]3CCCNC3)c21 + Nc1ncn([C@H]2C[C@H](O)[C@@H](CO)O2)c(=O)n1 [Decitabine] (partner 2 µM)
In short: as §1

| Cell Line | relative viability (BAM7 + Crizotinib; first compound 0.5 µM) | relative viability (BAM7 + Crizotinib; first compound 5 µM) | relative viability (BAM7 + Crizotinib; first compound 15.81 µM) | relative viability (BAM7 + Crizotinib; first compound 50 µM) | relative viability (BAM7 + Linsitinib; first compound 0.5 µM) | relative viability (BAM7 + Linsitinib; first compound 5 µM) | relative viability (BAM7 + Linsitinib; first compound 15.81 µM) | relative viability (BAM7 + Linsitinib; first compound 50 µM) | relative viability ([1]; first compound 0.01 µM) | relative viability ([1]; first compound 0.03162 µM) | relative viability ([1]; first compound 0.1 µM) | relative viability ([1]; first compound 0.3162 µM) | relative viability ([1]; first compound 1 µM) | relative viability ([2]; first compound 0.01 µM) | relative viability ([2]; first compound 0.03162 µM) | relative viability ([2]; first compound 0.1 µM) | relative viability ([2]; first compound 0.3162 µM) | relative viability ([2]; first compound 1 µM) |
| --- | --- | --- | --- | --- | --- | --- | --- | --- | --- | --- | --- | --- | --- | --- | --- | --- | --- | --- |
| 201T | 0.957 | 1.02 | 0.876 | 0.883 | 1.04 | 1.09 | 0.963 | 1.03 | 0.35 | 0.378 | 0.33 | 0.352 | 0.36 | 0.879 | 0.822 | 0.888 | 0.837 | 0.866 |
| A549 | 0.85 | 0.861 | 0.745 | 0.781 | 0.658 | 0.617 | 0.57 | 0.559 | – | – | – | – | – | 0.207 | 0.202 | 0.292 | 0.27 | 0.215 |
| A-427 | 0.927 | 1 | 0.814 | 0.817 | 1.14 | 1.1 | 1.05 | 1.14 | 0.426 | 0.508 | 0.533 | 0.515 | 0.559 | 0.558 | 0.61 | 0.589 | 0.54 | 0.562 |
| ABC-1 | 1.49 | 1.34 | 0.987 | 1.21 | 0.883 | 1.18 | 0.815 | 0.758 | 0.578 | – | 0.678 | 0.735 | 0.555 | 1.18 | – | 1.2 | 0.97 | 1.02 |
| BEN | 0.866 | 0.977 | 0.845 | 0.83 | 0.914 | 0.97 | 0.876 | 0.898 | 0.481 | 0.475 | 0.432 | 0.463 | 0.474 | 0.682 | 0.693 | 0.569 | 0.67 | 0.782 |
| CAL-12T | 0.737 | 0.941 | 0.695 | 0.652 | 0.929 | 0.743 | 0.75 | 0.852 | 0.39 | 0.448 | 0.468 | 0.462 | 0.553 | – | – | – | – | – |
| COR-L23 | 0.785 | 0.685 | 0.601 | 0.604 | 0.979 | 0.989 | 0.852 | 0.852 | 0.22 | 0.288 | 0.226 | 0.231 | 0.226 | 0.429 | 0.353 | 0.348 | 0.352 | 0.38 |
| COR-L 105 | 0.917 | 1.02 | 0.787 | 0.718 | 1.14 | 0.801 | 1 | 0.97 | 0.401 | 0.37 | 0.419 | 0.39 | 0.42 | 0.651 | 0.681 | 0.651 | 0.749 | 1.58 |
| Calu-6 | 0.883 | 0.903 | 0.783 | 0.675 | 1.1 | 1.11 | 0.913 | 1.02 | – | – | – | – | – | – | – | – | – | – |
| ChaGo-K-1 | 1.16 | 1.05 | 1.12 | 1.15 | – | – | – | – | 0.915 | 0.918 | 0.939 | 0.893 | 0.84 | 0.483 | 0.5 | 0.559 | 0.487 | 0.533 |
| EBC-1 | 0.216 | 0.201 | 0.191 | 0.175 | 0.856 | 1.07 | 0.876 | 0.85 | – | – | – | – | – | – | – | – | – | – |
| EKVX | 1.15 | 0.963 | 0.54 | 0.711 | 1.05 | 1.04 | 0.729 | 0.831 | 0.411 | 0.408 | 0.378 | 0.374 | 0.419 | 0.325 | 0.37 | 0.369 | 0.347 | 0.337 |
| EMC-BAC-2 | 0.849 | 0.852 | 0.74 | 0.857 | 0.904 | 0.838 | 0.786 | 0.823 | 0.497 | 0.506 | 0.504 | 0.5 | 0.471 | 0.966 | – | 0.996 | 0.916 | 1.04 |
| EPLC-272H | 0.928 | 0.986 | 1.02 | 0.982 | 1.45 | 1.11 | 1.33 | 1.24 | 0.32 | 0.371 | 0.297 | 0.281 | 0.259 | 0.413 | 0.378 | 0.349 | 0.347 | 0.356 |
| H3255 | 0.981 | 0.883 | 0.795 | 0.814 | 0.901 | 1.02 | 0.606 | 0.848 | 0.291 | 0.303 | 0.345 | 0.296 | 0.297 | 0.614 | 0.58 | 0.639 | 0.546 | 0.6 |
| HARA | 1.1 | 1.15 | 0.887 | 1 | 1.08 | 1.14 | 0.864 | 1.08 | 0.303 | 0.344 | 0.269 | 0.268 | 0.209 | 0.508 | 0.486 | 0.656 | 0.551 | 0.498 |
| HCC-15 | 0.812 | 0.811 | 0.785 | 0.724 | 0.914 | 0.905 | 0.859 | 0.853 | 0.76 | 0.71 | 0.716 | 0.614 | 0.683 | 0.695 | 0.648 | 0.637 | 0.558 | 0.571 |
